{"source": "patent US6686145B1", "about": "“Rigidized trimethine cyanine dyes” (Carnegie Mellon University, priority 1997, dated 2004)", "key": {"[1]": {"assay": "Comparison of spectral properties of rigidized Cy3 and open chain Cy3 dyes", "type": "physicochemical", "from_the_text": "The spectral properties of the rigidized dye were compared with the known open chain Cy3.18.OH and Cy3.10.OH dyes (FIG. 2). The absorption maxima of the rigid dye shifted to the red by 12 nm in methanol and as expected it is 10-12 time brighter that the non-rigidized indocyanines."}, "[2]": {"biological_target": "Grb2 glutathione-S-transferase fusion protein (Homo sapiens, UniProt P62993)", "sequence (P62993 whole entry, the tested form may be a part)": "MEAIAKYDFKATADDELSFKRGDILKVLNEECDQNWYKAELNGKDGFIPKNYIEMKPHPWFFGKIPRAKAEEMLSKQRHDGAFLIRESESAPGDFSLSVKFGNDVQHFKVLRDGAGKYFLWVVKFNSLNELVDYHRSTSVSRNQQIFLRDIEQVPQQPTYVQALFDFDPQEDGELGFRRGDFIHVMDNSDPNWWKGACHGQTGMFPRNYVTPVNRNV", "assay": "Protein:peptide polarization binding assay", "conditions": "non-specific binding defined with 100 μM unlabelled peptide, 60 minutes", "experimental": "A peptide of sequence E-pY-I-N-Q-S-V-P-K (E9K) was prepared by solid phase synthesis on an Applied Biosystems 431A peptide synthesizer using standard methods and materials. An excess of 6,7,9,10-tetrahydro-2-carboxymethyl-14-sulphonato-16,16,18,18-tetramethyl-7aH,8aH-bisindolinium[3,2-a;3′2′-a′]pyrano[3,2-c;5,6-c′]dipyridin-5-ium (Compound III), N-hydroxysuccinimide ester was coupled in DMSO in the presence of diisopropylethylamine to the free N-terminus of the protected peptide whilst still attached to the solid phase. After deprotection for two hours, the crude labelled peptide was purified by reverse phase HPLC, using a gradient from water/0.1%TFA to water:acetonitrile (40:60)/0.1%TFA over 60 minutes.\nVarious concentrations of Grb2 glutathione-S-transferase fusion protein and E9K labelled with Compound III in 20 mM MOPS pH7.4/10 mM DTT/005% Tween 20 were incubated in a final volume of 150 μl in black 96-well microplates (Dynatech) for 60 minutes. […] Polarization values were read on a Fluorolite FPM2™ plate reader (Jolley Research and Consulting Inc.) using a 530DF30 filter for excitation and 590DF45 filter for emission."}, "[3]": {"system": "complementary probe oligonucleotide", "assay": "Nucleic acid FRET hybridization assay", "type": "binding", "conditions": "560 nm excitation, 670 nm emission", "experimental": "The oligonucleotides were deprotected for 17 hours at 40° C. and purified by reverse phase HPLC using a C18 column and a 40% TEAA/acetonitrile gradient. The desired peaks were collected, freeze dried and the samples were resuspended in sterile H2O.\nAmino modified target and probe oligonucleotides were incubated with a 10-fold molar excess of 6,7,9,10-tetrahydro-2-carboxymethyl-14-sulphonato-16,16,18,18-tetramethyl-7aH,8aH-bisindolinium[3,2-a;3′2′-a′]pyrano[3,2-c;5,6-c′]dipyridin-5-ium (Compound III), N-hydroxysuccinimide ester and Cy5 NHS-ester dye (Amersham Pharmacia Biotech) respectively, in 0.1M sodium bicarbonate buffer (pH9), overnight at 22° C. The following morning, the oligonucleotides were ethanol precipitated and the resulting pellets were resuspended in H2O. […] Residues were resuspended into H2O and concentration of recovered material was determined.\nWells of a black, streptavidin coated 96-well plate were coated with either unlabelled or Compound III-labelled target oligonucleotides (20 pmol/well diluted in 100 μl PBS/1 MgCl2) for 120 minutes at ambient temperature. […] Finally, wells were washed vigorously with PBS and fluorescence intensity was measured on a fluorescence plate reader using a 560 nm excitation filter and a 670 nm emission filter (FIG. 7)."}, "NF-kB-specific dsDNA": {"system": "NF-kB-specific dsDNA", "assay": "Protein:DNA direct intensity binding assay", "conditions": "competitor 200 pmol/well (40 fold molar excess for p65) versus p65GST", "experimental": "All HPLC purified oligonucleotides were obtained from Genosys Biotechnologies Ltd. Equimolar amounts of a biotinylated coding strand (5′ Biotin-[…] CCGCG 3′) and an unmodified non-coding strand (5′ […] 3′) specific for NF-kB were incubated together in a boiling water bath for 3 minutes and allowed to anneal by cooling over 2 hours.\nAnti-GST antibody (3 mg/ml, 1.5 mg supplied/vial (0.5 ml) from Molecular Probes) was dialysed against 1 litre of 0.15M sodium chloride for 4 hours at room temperature and dialysis was continued overnight at 4° C. in a fresh solution of 0.15M sodium chloride. The following morning the antibody was dialysed against 1 litre of 0.1M sodium hydrogen carbonate for a maximum of 4 hours.\nA 1 mg/ml solution of 6,7,9,10-tetrahydro-2-carboxymethyl-14-sulphonato-16,16,18,18-tetramethyl-7aH,8aH-bisindolinium[3,2-a;3′2′-a′]pyrano[3,2-c;5,6-c′]dipyridin-5-ium (Compound III), N-hydroxysuccinimide ester in DMSO was added gradually with stirring to the antibody at a ratio of 0.10 mg dye: 0.33 mg antibody. […]\nBiotin-labelled NF-kB-specific dsDNA (2.5 pmol, diluted in 0.01 MMgCl2) was added to each well (final volume, 100 μl) of a 96-well streptavidin coated microplate (Boehringer Mannheim) and incubated at room temperature for 2 hours. […] The plate was read at Ex535/Em569 and Ex560/595 in the Biolumin 960 fluorescence microplate reader (Molecular Dynamics Inc.)."}, "[4]": {"system": "NF-kB-specific double stranded (ds) DNA", "assay": "Protein:DNA FRET binding assay", "conditions": "competitor 200 pmol/well (10 fold molar excess for p65), Ex520/Em670", "experimental": "All HPLC purified NF-kB-specific oligonucleotides were obtained from Genosys Biotechnologies Ltd: a coding strand modified with a 5′ terminal primary amine (5′ NH2-[…] 3′) and an unmodified non-coding strand (5′ […] 3′). A 10-fold molar excess of Cy-5-NHS ester dye (Amersham Pharmacia Biotech) was incubated with the coding strand, in 0.1M sodium bicarbonate buffer (pH9), overnight at 22° C. The following morning the oligonucleotide was ethanol precipitated and then resuspended in water. The labelled coding strand was purified by reverse phase HPLC using a C18 column and a 60% TEAA/acetonitrile gradient. The peak containing labelled oligonucleotide was freeze dried and resuspended in water.\nNF-kB-specific double stranded (ds) DNA was generated by incubating together equimolar amounts of the Cy-5 labelled coding strand (5′ Cy5-[…] […] 3′) and the unmodified non-coding strand (5′ […] […] 3′) in a boiling water bath for 3 minutes and allowing to anneal by cooling over 2 hours.\nNF-kB p65 protein ([…]) was diluted to 1000 μl in 0.01M phosphate buffered saline. […]\nA black microtitre plate (Dynatech) was used for the FRET assay. […] The plate was read at Ex520/Em670 in the Biolumin 960 fluorescence microplate reader (Molecular Dynamics Inc.)."}}, "note": "Where no end group is shown, it is not given here. [ ]: non-standard residue; d: D form. Compound III = 6,7,9,10-tetrahydro-2-carboxymethyl-14-sulphonato-16,16,18,18-tetramethyl-7aH,8aH-bisindolinium[3,2-a,3'2'-a']pyrano[3,2-c,5,6-c']dipyridin-5-ium dye (NHS ester used for labelling); {C7NH2-CompoundIII} = C7 amino linker labelled with Compound III NHS ester; pY = N[C@@H](Cc1ccc(OP(=O)(O)O)cc1)C(=O)O"}
{"compound": "CC1(C)C2=C3C=C4C5=[N+](CCC4OC3CCN2c2ccc(CC(=O)O)cc21)c1ccc(CC(=O)O)cc1C5(C)C", "note": "(centres unmarked) [Compound I, 6,7,9,10-Tetrahydro-2,14-carboxymethyl-16,16,18,18-tetramethyl-7aH,8aH-bisindolinium[3,2-a;3′2′-a′]pyrano[3,2-c;5,6-c′]dipyridin-5-ium]", "values": [{"measurement": "QY (Φ)", "setting": "[1]; dye in methanol", "value": 0.8}, {"measurement": "λmax", "setting": "[1]; dye in methanol", "value": 565}, {"measurement": "absorption maxima shifted to the red", "setting": "[1]; in methanol, versus open chain Cy3 dyes", "value": 12, "unit": "nm"}, {"measurement": "brightness relative to the non-rigidized indocyanines", "setting": "[1]; versus non-rigidized indocyanines", "value": "10-12 time"}]}
{"compound": "Compound III-labelled peptide: peptide E-pY-I-N-Q-S-V-P-K (E9K) labelled at the free N-terminus with Compound III ({Compound III}-E[pY]INQSVPK)", "values": [{"measurement": "binding to Grb2 protein as determined by change in polarization", "setting": "[2]", "value": "specific binding"}]}
{"compound": "Compound III-labelled target oligonucleotide: 5′ C7 amino-modified TAC CCA GAC GAG CAA-biotin 3′ labelled with Compound III NHS ester (DNA TACCCAGACGAGCAA; DNA, 5' {C7NH2-CompoundIII}, 3' {Biotin}, backbone not given here)", "values": [{"measurement": "fluorescence signal (FRET)", "setting": "[3]; incubated with Cy5-labelled probe", "value": "strong fluorescence signal"}, {"measurement": "fluorescence signal (FRET)", "setting": "[3]; incubated with unlabelled probe", "value": "low fluorescence signals"}]}
{"compound": "casein", "values": [{"measurement": "reduction of the total signal", "setting": "NF-kB-specific dsDNA", "value": 25, "unit": "%"}, {"measurement": "reduction of the total signal", "setting": "[4]", "value": "no effect"}]}
{"compound": "p65: NF-kB p65 protein, specific competitor", "values": [{"measurement": "reduction of the total signal", "setting": "NF-kB-specific dsDNA", "value": "approximately 90%"}, {"measurement": "reduction of the total signal", "setting": "[4]", "value": 40, "unit": "%"}]}
